These results are taken from US20220073525A1, “COMPOSITIONS FOR INHIBITING UBIQUITIN SPECIFIC PROTEASE 1” (FORMA Therapeutics, Inc., priority 2019, published 2022).

Chain of USP1 (O94782 whole entry): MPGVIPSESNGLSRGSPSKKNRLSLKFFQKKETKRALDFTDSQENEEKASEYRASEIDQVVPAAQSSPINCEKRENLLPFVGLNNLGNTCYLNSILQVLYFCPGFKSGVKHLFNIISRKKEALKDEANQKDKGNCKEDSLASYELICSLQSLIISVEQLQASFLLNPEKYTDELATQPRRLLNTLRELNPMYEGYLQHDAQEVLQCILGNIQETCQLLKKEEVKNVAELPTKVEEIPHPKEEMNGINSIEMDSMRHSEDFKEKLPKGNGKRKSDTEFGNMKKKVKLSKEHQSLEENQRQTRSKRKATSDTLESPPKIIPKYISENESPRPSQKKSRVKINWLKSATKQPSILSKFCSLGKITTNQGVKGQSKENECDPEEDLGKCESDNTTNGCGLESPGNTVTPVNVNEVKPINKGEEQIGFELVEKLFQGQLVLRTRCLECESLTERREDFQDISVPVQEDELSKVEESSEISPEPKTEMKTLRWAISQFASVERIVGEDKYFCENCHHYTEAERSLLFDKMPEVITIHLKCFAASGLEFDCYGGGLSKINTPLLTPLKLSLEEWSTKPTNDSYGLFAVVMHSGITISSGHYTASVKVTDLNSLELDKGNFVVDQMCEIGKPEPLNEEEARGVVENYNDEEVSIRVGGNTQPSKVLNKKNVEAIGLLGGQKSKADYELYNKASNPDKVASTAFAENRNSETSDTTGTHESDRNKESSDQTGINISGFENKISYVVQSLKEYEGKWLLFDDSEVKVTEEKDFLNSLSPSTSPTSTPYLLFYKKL
Chain of USP1 (Q8TAF3 whole entry partner): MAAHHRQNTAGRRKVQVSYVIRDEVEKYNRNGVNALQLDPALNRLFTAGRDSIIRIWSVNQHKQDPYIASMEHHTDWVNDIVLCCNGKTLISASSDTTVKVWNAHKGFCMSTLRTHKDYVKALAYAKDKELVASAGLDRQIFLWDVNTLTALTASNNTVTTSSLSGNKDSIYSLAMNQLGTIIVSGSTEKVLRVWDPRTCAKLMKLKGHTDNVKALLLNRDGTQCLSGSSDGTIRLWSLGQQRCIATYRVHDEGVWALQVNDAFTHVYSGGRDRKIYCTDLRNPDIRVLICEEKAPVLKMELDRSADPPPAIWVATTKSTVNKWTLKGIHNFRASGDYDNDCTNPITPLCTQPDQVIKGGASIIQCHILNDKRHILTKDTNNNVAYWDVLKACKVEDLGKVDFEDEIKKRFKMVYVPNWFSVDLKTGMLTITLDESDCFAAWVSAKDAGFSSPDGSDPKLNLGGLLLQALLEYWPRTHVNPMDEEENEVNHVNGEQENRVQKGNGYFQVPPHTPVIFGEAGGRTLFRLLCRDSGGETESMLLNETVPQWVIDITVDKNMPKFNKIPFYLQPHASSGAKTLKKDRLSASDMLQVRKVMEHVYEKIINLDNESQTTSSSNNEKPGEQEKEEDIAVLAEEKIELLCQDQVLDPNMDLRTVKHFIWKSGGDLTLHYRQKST

This assay concerns the target USP1 (Homo sapiens, UniProt O94782). The assay is described as follows: Biochemical Assay for USP1 Inhibition (Ub-Rho 110 fluorescence). The conditions noted are these: Table 5; 30 min preincubation, Enzyme 0.025 nM, Substrate Ub-Rho 110 25 nM; read-out: IC50 (μm). The protocol:
The assay was performed in a final volume of 6 μL in assay buffer containing 20 mM Tris-HCl pH 8.0, (1 M Tris-HCl, pH 8.0 solution; Corning 46-031-CM), 1 mM GSH (L-glutathione reduced, Sigma-Aldrich, G4251-100G), 0.03% BGG (0.22 μM filtered, Sigma, G7516-25G), and 0.01% Triton X-100 (Sigma, T9284-10L). Nanoliter quantities of 10-point, 3-fold serial dilution in DMSO were pre-dispensed into 1536 assay plates (Corning, #3724BC) for a final test concentration of 25 μM to 1.3 nM, top to lowest dose, respectively. Concentration and incubation times were optimized for the maximal signal-to-background while maintaining initial velocity conditions at a fixed substrate concentration (<<Km). 3 μL of 2× Enzyme was added to assay plates (pre-stamped with compound), preincubated for 30 min, and then treated with 3 μL of 2× Substrate (Ub-Rho 110, UbiQ-126). Final concentrations of Enzyme and Substrate are 0.025 nM and 25 nM, respectively. Plates were read using a kinetic protocol continuously for 11 min on the Envision (Perkin Elmer) or PheraSTAR (BMG), excitation at 485 nm and emission at 535 nm or excitation at 520 nm and emission at 590 nm. For all assay formats, data were reported as percent inhibition compared with control wells based on the following equation: % inh=100*([…]), where FLU=measured Fluorescence, AveLow=average Fluorescence of no enzyme control (n=32), and AveHigh=average Fluorescence of DMSO control (n=32). IC50 values were determined by curve fitting of the standard 4 parameter logistic fitting algorithm included in the Activity Base software package: TDBS XE Designer Model205. Data is fitted using the Levenburg Marquardt algorithm.
In Table 5, absolute stereochemistry has not been determined for some Compounds. Accordingly, assignment ofany Compounds as the “R” or “S” stereoisomer is arbitrary, unless otherwise noted. In some cases, Compounds are labeled with “1st eluting isomer”, “2nd eluting isomer”, etc. based on the purification method used to separate the stereoisomers.
On to `Cc1nc(-c2cccnc2C(C)C)c2n1CC(C)N(c1ccc(-c3nc(C(F)(F)F)cn3C)cc1)C2` (single isomer, unassigned) [Compound 8-1, 3-[3,6-dimethyl-7-{4-[1-methyl-4-(trifluoromethyl)-1H-imidazol-2-yl]phenyl}-5H,6H,7H,8H-imidazo[1,5-a]pyrazin-1-yl]-2-(propan-2-yl)pyridine], for which the IC50 was not above 1 µM. The result for `Cc1nc(-c2cccnc2OC(F)F)c2n1CC(C)N(c1ccc(-c3nc(C(F)(F)F)cn3C)cc1)C2` (single isomer, unassigned) [Compound 27-1, 2-(difluoromethoxy)-3-[-3,6-dimethyl-7-{4-[1-methyl-4-(trifluoromethyl)-1H-imidazol-2-yl]phenyl}-5H,6H,7H,8H-imidazo[1,5-a]pyrazin-1-yl]pyridine] reads not above 1 µM. The result for `Cc1nc(-c2cccnc2OC(F)F)c2n1CCN(c1ccc(-c3nc(C(F)(F)F)cn3C)cc1)C2C` (single isomer, unassigned) [Compound 52-1, 2-(difluoromethoxy)-3-[-3,8-dimethyl-7-{4-[1-methyl-4-(trifluoromethyl)-1H-imidazol-2-yl]phenyl}-5H,6H,7H,8H-imidazo[1,5-a]pyrazin-1-yl]pyridine] reads not above 1 µM; that for `Cc1nc(-c2cccnc2OC(F)F)c2n1CCN(c1ccc(-c3nc(C(F)(F)F)cn3C)cc1)C2C` (single isomer, unassigned) [Compound 52-2, 2-(difluoromethoxy)-3-[-3,8-dimethyl-7-{4-[1-methyl-4-(trifluoromethyl)-1H-imidazol-2-yl]phenyl}-5H,6H,7H,8H-imidazo[1,5-a]pyrazin-1-yl]pyridine], 1 to 10 µM. The result for `Cc1nc(-c2cccnc2C(C)C)c2n1C(C)CN(c1ccc(-c3nc(C(F)(F)F)cn3C)cc1)C2` (single isomer, unassigned) [Compound 72-1, 3-[-3,5-dimethyl-7-{4-[1-methyl-4-(trifluoromethyl)-1H-imidazol-2-yl]phenyl}-5H,6H,7H,8H-imidazo[1,5-a]pyrazin-1-yl]-2-(propan-2-yl)pyridine] reads not above 1 µM; that for `Cc1nc(-c2cccnc2C(C)C)c2n1CCN(c1ccc(-c3nc(C(F)(F)F)cn3C)cc1)C2` [Compound 1, 1-(2-isopropylpyridin-3-yl)-3-methyl-7-(4-(1-methyl-4-(trifluoromethyl)-1H-imidazol-2-yl)phenyl)-5,6,7,8-tetrahydroimidazo[1,5-a]pyrazine], not above 1 µM. `CC(C)c1ncccc1-c1nc(C(F)(F)F)n2c1CN(c1ccc(-c3nc(C(F)(F)F)cn3C)cc1)CC2` [Compound 2, 3-(7-{4-[1-methyl-4-(trifluoromethyl)-1H-imidazol-2-yl]phenyl}-3-(trifluoromethyl)-5H,6H,7H,8H-imidazo[1,5-a]pyrazin-1-yl)-2-(propan-2-yl)pyridine]: the IC50 was not above 1 µM. The result for `Cc1nc(-c2ccccc2C(C)C)c2n1CCN(c1ccc(-c3nc(C(F)(F)F)cn3C)cc1)C2` [Compound 3, 1-methyl-2-(4-{3-methyl-1-[2-(propan-2-yl)phenyl]-5H,6H,7H,8H-imidazo[1,5-a]pyrazin-7-yl}phenyl)-4-(trifluoromethyl)-1H-imidazole] reads not above 1 µM; that for `CC(C)c1ncccc1-c1ncn2c1CN(c1ccc(-c3nc(C(F)(F)F)cn3C)cc1)CC2` [Compound 4, 3-(7-{4-[1-methyl-4-(trifluoromethyl)-1H-imidazol-2-yl]phenyl}-5H,6H,7H,8H-imidazo[1,5-a]pyrazin-1-yl)-2-(propan-2-yl)pyridine], not above 1 µM. For the molecule `Cc1nc(-c2cccnc2C(C)C)c2n1CCN(c1ccc(F)cc1)C2` [Compound 5, 3-[7-(4-fluorophenyl)-3-methyl-5H,6H,7H,8H-imidazo[1,5-a]pyrazin-1-yl]-2-(propan-2-yl)pyridine], the IC50 is more than 25 µM. Turning to `Cc1nc(-c2cccnc2C(C)C)c2n1CCN(c1ccc(C#N)cc1)C2` [Compound 6, 4-{3-methyl-1-[2-(propan-2-yl)pyridin-3-yl]-5H,6H,7H,8H-imidazo[1,5-a]pyrazin-7-yl}benzonitrile], the IC50 is more than 25 µM.

The IC50 is the point on the concentration scale where inhibition reaches its midpoint.
